Experimental data as given in patent US11076595B2, “1-(n,n-disubstituted carbamoyl) 4-(substituted sulfonyl)triazolin-5-one derivative, 4-(n,n-disubstituted carbamoyl) 1-(substituted sulfonyl)triazolin-5-one derivative, and herbicide containing said derivative as active ingredient” (HOKKO CHEMICAL INDUSTRY CO., LTD., priority 2017, dated 2021).

What was measured:
Assay type in all cases: in vivo
[1] = tested on: Echinochloa crus-galli; experiment: Test Example 1: herbicidal effect test by soil treatment in paddy field; conditions: 120 g/10a, paddy soil treatment just after sowing, 14 days after treatment
In short: (§1)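 Flooded paddy-soil pots (1/10000 are, N:P:K 17:17:17 fertilizer, puddled) were sown with 30 seeds per species at 0–1 cm, water kept ~3 cm in a greenhouse. Emulsifiable concentrate diluted in water was dripped in right after sowing at 120 g a.i. per 10 are. Suppression (%) came from dry weight vs untreated at 14 days.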

[2] = tested on: Lindernia pyxidaria; experiment: as above; conditions: 120 g/10a, paddy soil treatment just after sowing, 14 days after treatment
In short: as §1

[3] = tested on: Scirpus juncoides; experiment: as above; conditions: 120 g/10a, paddy soil treatment just after sowing, 14 days after treatment
In short: as §1

[4] = tested on: Monochoria vaginalis; experiment: as above; conditions: 120 g/10a, paddy soil treatment just after sowing, 14 days after treatment
In short: as §1

[5] = tested on: crabgrass; experiment: Test Example 3: herbicidal effect test by soil treatment in upland field; conditions: upland field soil treatment 1 day after sowing; 120 g/10a; evaluated 14 days after treatment
Description: (§2) This test was performed with two replications per one formulation concentration plot, and 14 days after the formulation treatments, the weed suppression rate (%) was determined according to the following equation (Math. 1). Weed suppression rate (%)=(1−an average dry weight (g) of plants in treated plots/an average dry weight (g) of plants in untreated plots)×100 [Math. 1]
(§3) A pot having a size of 36 cm^2 was filled with field soil (alluvial soil) and after uniformly mixing the soil of the surface layer of 1 cm with 20 grains of each weed seed of crabgrass, Echinochloa crus-galli, Chenopodium album and Amaranthus viridis, the surface layer was pressed lightly. One day after the sowing, an emulsifiable concentrate prepared according to Formulation Example 5 by using the compound shown in Table 7 below was diluted with water, and the water-diluted formulation was sprayed on the soil surface at a ratio of 100 liter per 10 are. The application rate of the active ingredient, by conversion, corresponded to 120 g per 10 are. Fourteen days after the formulation treatment, the herbicidal effect was evaluated by the same criteria as in Test Example 1.

[6] = tested on: Chenopodium album; experiment: as above; conditions: upland field soil treatment 1 day after sowing; 120 g/10a; evaluated 14 days after treatment
Description: as §2, §3

[7] = tested on: Echinochloa crus-galli; experiment: as above; conditions: upland field soil treatment 1 day after sowing; 120 g/10a; evaluated 14 days after treatment
Description: as §2, §3

[8] = tested on: Amaranthus viridis; experiment: as above; conditions: upland field soil treatment 1 day after sowing; 120 g/10a; evaluated 14 days after treatment
Description: as §2, §3

[9] = tested on: Echinochloa crus-galli; experiment: Test Example 2: herbicidal effect test by treatment during growing period in paddy field; conditions: treatment 7 days after sowing, 120 g/10a, evaluated 14 days after treatment
In short: (§4)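 Paddy soil in Wagner pots, flooded to ~3 cm; 30 seeds per species sown 0–1 cm deep, greenhouse-grown. Emulsifiable concentrate diluted in water and dripped into flood water 7 days after sowing at 120 g active ingredient per 10 are. Dry-weight suppression vs untreated assessed 14 days post-treatment, two replicates.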

[10] = tested on: Lindernia pyxidaria; experiment: as above; conditions: treatment 7 days after sowing, 120 g/10a, evaluated 14 days after treatment
In short: as §4

[11] = tested on: Scirpus juncoides; experiment: as above; conditions: treatment 7 days after sowing, 120 g/10a, evaluated 14 days after treatment
In short: as §4

[12] = tested on: Monochoria vaginalis; experiment: as above; conditions: treatment 7 days after sowing, 120 g/10a, evaluated 14 days after treatment
In short: as §4

[13] = tested on: crabgrass; experiment: Test Example 4: herbicidal effect test by foliage treatment in upland field; conditions: upland field foliage treatment 7 days after sowing; 120 g/10a; evaluated 14 days after treatment
Description: as §2
as §3, with “Seven days” for “One day”, “8” for “7”

[14] = tested on: Chenopodium album; experiment: as above; conditions: upland field foliage treatment 7 days after sowing; 120 g/10a; evaluated 14 days after treatment
Description: as §2
as §3, with “Seven days” for “One day”, “8” for “7”

[15] = tested on: Echinochloa crus-galli; experiment: as above; conditions: upland field foliage treatment 7 days after sowing; 120 g/10a; evaluated 14 days after treatment
Description: as §2
as §3, with “Seven days” for “One day”, “8” for “7”

[16] = tested on: Amaranthus viridis; experiment: as above; conditions: upland field foliage treatment 7 days after sowing; 120 g/10a; evaluated 14 days after treatment
Description: as §2
as §3, with “Seven days” for “One day”, “8” for “7”

Row | SMILES | weed suppression rate, Echinochloa crus-galli [1] | weed suppression rate, Lindemia pyxidaria [2] | weed suppression rate, Scirpus juncoides [3] | weed suppression rate, Monochoria vaginalis [4] | herbicidal effect (weed suppression rate), Crabgrass [5] | herbicidal effect (weed suppression rate), Chenopodium album [6] | herbicidal effect (weed suppression rate), Echinochloa crus-galli [7] | herbicidal effect (weed suppression rate), Amaranthus viridis [8] | weed suppression rate, Echinochloa crus-galli [9] | weed suppression rate, Lindemia pyxidaria [10] | weed suppression rate, Scirpus juncoides [11] | weed suppression rate, Monochoria vaginalis [12] | herbicidal effect (weed suppression rate), Crabgrass [13] | herbicidal effect (weed suppression rate), Chenopodium album [14] | herbicidal effect (weed suppression rate), Echinochloa crus-galli [15] | herbicidal effect (weed suppression rate), Amaranthus viridis [16]
1 | CC(C)CN(C)S(=O)(=O)n1cnn(C(=O)N(c2ccc(F)cc2F)C(C)C)c1=O [Compound 1-1142] | 100% | 80% | 80% | 80% | 90% | 80% | 80% | 90% | 90% | 80% | 90% | 80% | – | – | – | –
2 | CC(C)N(C(=O)n1ncn(S(=O)(=O)C2CC2)c1=O)c1ccc(C(F)(F)F)cc1Cl [Compound 1-229] | 90% | 80% | 90% | 80% | 90% | 80% | 80% | 90% | 90% | 80% | 90% | 80% | – | – | – | –
3 | CC(C)N(C(=O)n1ncn(S(=O)(=O)C(C)C)c1=O)c1ccc(F)nc1 [Compound 1-242] | – | – | – | – | 90% | 80% | 80% | 90% | – | – | – | – | – | – | – | –
4 | CC(C)N(C(=O)n1ncn(S(=O)(=O)C2CCCCC2)c1=O)c1c(F)c(F)cc(F)c1F [Compound 1-311] | 100% | 100% | 100% | 100% | – | – | – | – | 100% | 80% | 90% | 100% | 100% | 60% | 100% | 0%
5 | CC(C)N(C(=O)n1ncn(S(=O)(=O)C2CC2)c1=O)c1cccc(F)c1 [Compound 1-170] | 90% | 100% | 90% | 90% | – | – | – | – | 100% | 90% | 90% | 90% | 90% | 80% | 80% | 90%
6 | CC(C)N(C(=O)n1ncn(S(=O)(=O)C2CCCCC2)c1=O)c1ccc(F)c(F)c1F [Compound 1-309] | 100% | 100% | 100% | 100% | – | – | – | – | 100% | 80% | 100% | 100% | 100% | 80% | 100% | 0%
7 | CC(C)N(C(=O)n1ncn(S(=O)(=O)C2CC2)c1=O)c1ccc(C(F)(F)F)cc1F [Compound 1-226] | 100% | 100% | 100% | 100% | – | – | – | – | 100% | 80% | 90% | 100% | 100% | 80% | 100% | 90%
8 | CC(C)N(C(=O)n1ncn(S(=O)(=O)C2CC2)c1=O)c1c(F)c(F)cc(F)c1F [Compound 1-206] | 100% | 100% | 100% | 90% | – | – | – | – | 100% | 80% | 100% | 90% | 100% | 60% | 100% | 80%
9 | CCN(CC)S(=O)(=O)n1cnn(C(=O)N(c2ccc(F)cc2F)C(C)C)c1=O [Compound 1-1140] | 90% | 80% | 90% | 80% | 90% | 80% | 80% | 90% | – | – | – | – | – | – | – | –
10 | Cc1cc(F)ccc1N(C(=O)n1ncn(S(=O)(=O)C2CCCCC2)c1=O)C(C)C [Compound 1-319] | 100% | 80% | 100% | 80% | – | – | – | – | 100% | 80% | 80% | 90% | 80% | 70% | 70% | 70%
